The values below come from US20260109699A1, “AZOLE DERIVATIVES AS SHP2 INHIBITORS” (IRBM S.P.A., priority 2022, published 2026).

Assay [1] has as its target T1, SHP-2 enzyme (Met1-Leu525), SHP2wt (Homo sapiens, UniProt Q06124).
T1 construct: synthetized by Origene, Met1-Leu525, cat #TP750155; purchased Origene TP750155
T1 sequence (Q06124 1-525): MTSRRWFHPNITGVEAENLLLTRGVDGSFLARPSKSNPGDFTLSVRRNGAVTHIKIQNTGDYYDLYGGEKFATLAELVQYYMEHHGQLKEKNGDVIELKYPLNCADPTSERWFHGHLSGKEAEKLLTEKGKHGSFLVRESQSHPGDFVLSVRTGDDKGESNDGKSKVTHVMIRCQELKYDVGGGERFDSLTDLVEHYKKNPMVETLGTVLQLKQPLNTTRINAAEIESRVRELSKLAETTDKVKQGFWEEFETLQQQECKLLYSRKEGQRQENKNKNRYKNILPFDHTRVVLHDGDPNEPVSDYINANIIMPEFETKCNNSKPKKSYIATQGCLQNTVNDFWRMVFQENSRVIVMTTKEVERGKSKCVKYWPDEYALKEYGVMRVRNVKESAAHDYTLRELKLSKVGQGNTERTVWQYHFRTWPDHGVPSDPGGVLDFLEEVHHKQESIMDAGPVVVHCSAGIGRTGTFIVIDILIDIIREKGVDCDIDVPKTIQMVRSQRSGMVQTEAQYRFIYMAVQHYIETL
Kind of assay: SHP2 inhibition enzymatic assay. The settings on record: 0.5 nM SHP-2 activated by 500 nM IRS1 peptide, 75 μM DiFMUP substrate. The assay is classed as biochemical. Put shortly:
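Human SHP2 (Met1-Leu525, 0.5 nM) activated by 500 nM bis-phosphorylated IRS1 peptide, pre-incubated 30 min with compound, then 75 μM DiFMUP for 30 min at rt in HEPES pH 7.2, NaCl/KCl, EDTA, Tween-20, 5 mM DTT. Reaction quenched with bpV, fluorescence read; IC50 by four-parameter logistic fit.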

Assay [2] deals with T2, recombinant SHP2 protein (AviTag-G4SG4S-SHP2(1-525)) (Homo sapiens, UniProt Q06124).
T2 construct: recombinant SHP2 protein (AviTag-G4SG4S-SHP2(1-525)); purchased VIVA Biotech Ltd (custom production)
T2 sequence (Q06124 1-525): T1 sequence (Q06124 1-525)
Kind of assay: Binding kinetic assay by surface plasmon resonance (SPR). As for the experimental part:
A N-term biotinylated recombinant SHP2 protein (AviTag-G4SG4S-SHP2(1-525)) was custom produced by VIVA Biotech Ltd. Binding kinetic rate constants were measured by SPR, using a Biacore T200 instrument. The recombinant SHP2 protein was diluted at […] in HBS-P+ buffer, then captured on a series S streptavidin sensor chip up to 5000 RU. Binding of compounds was assessed by a single cycle kinetic procedure (SCK): compounds were diluted in HBS-EP+ supplemented with 20% DMSO (from 300 to 3.7 nM, 3 fold dilution), injected for 120 s over the ligand, then dissociation rate measured for 3600 s, at […] and 25° C. Sensorgrams were analysed by Biacore T200 evaluation software: binding rate constants (kon, koff) and affinity (KD) were calculated by curve filling according to a 1:1 Langmuir model. Each molecule was tested in triplicate on separate flow channels.
(In SPR one partner is held on a chip, and binding of the other changes the refractive index at the surface.)

Assay [3] relates to phospho-ERK1/2 (Thr202/Tyr204). The assay is described as follows: Phospho-ERK cellular assay. The assay is classed as cell-based. The note with it: Homo sapiens; KYSE-520 cells, 2 h at 37° C, TR-FRET; read-out: pERK IC50. Put shortly: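 KYSE-520 cells treated overnight-after-plating with serially diluted compounds for 2 h at 37° C, then lysed. Phospho-ERK1/2 measured by TR-FRET after overnight antibody incubation at rt; inhibition normalized between DMSO (0%) and no-cell (100%) wells, IC50 from four-parameter logistic fit.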
A general note: TR-FRET usually uses a lanthanide donor and a delayed reading to cut background.

Molecules are shown by their SMILES.

For orientation: IC50 means the concentration that inhibits the measured activity by half. As a reminder, the koff is a measure of how fast the partners let go of each other. Turning to `Cc1c(F)ccc(Sc2cnc(N3CCC4(CC3)Cn3nccc3[C@H]4N)cn2)c1F` [Example 45, (S)-1-(5-((2,4-difluoro-3-methylphenyl)thio)pyrazin-2-yl)-4′H,6′H-spiro[piperidine-4,5′-pyrrolo[1,2-b]pyrazol]-4′-amine], the values for the IC50 in assay [1] and in assay [3] were not above 50 nM and less than 100 nM, respectively. In assay [2] (1/koff from SPR), the “Residence time 1/koff SPR” value was 12664 s. Further, in assay [2] (Biacore T200, single cycle kinetic, 25° C, 1:1 Langmuir model), the koff amounted to 7.9e-05 s⁻¹.
Consider `Cn1cnc2ccc(Sc3cnc(N4CCC5(CC4)Cn4nccc4[C@H]5N)cn3)cc21` [Example 65, (S)-1-(5-((1-methyl-1H-benzo[d]imidazol-6-yl)thio)pyrazin-2-yl)-4′H,6′H-spiro[piperidine-4,5′-pyrrolo[1,2-b]pyrazol]-4′-amine], for which the IC50 in assay [1] is not above 50 nM; in assay [3], less than 100 nM.
In the same order, the values of `N#Cc1ccc(Sc2cnc(N3CCC4(CC3)Cn3nccc3[C@H]4N)cn2)c2cccnc12` [Example 66, (S)-5-((5-(4′-amino-4′H,6′H-spiro[piperidine-4,5′-pyrrolo[1,2-b]pyrazol]-1-yl)pyrazin-2-yl)thio)quinoline-8-carbonitrile] are not above 50 nM and less than 100 nM.
In the same order, the values of `N[C@@H]1c2ccnn2CC12CCN(c1cnc(Sc3ccc(C(F)(F)F)c4ncccc34)cn1)CC2` [Example 67, (S)-1-(5-((8-(trifluoromethyl)quinolin-5-yl)thio)pyrazin-2-yl)-4′H,6′H-spiro[piperidine-4,5′-pyrrolo[1,2-b]pyrazol]-4′-amine] are not above 50 nM and less than 100 nM.
Regarding `N[C@@H]1c2ccnn2CC12CCN(c1cnc(Sc3ccc(F)c4ncccc34)cn1)CC2` [Example 68, (S)-1-(5-((8-fluoroquinolin-5-yl)thio)pyrazin-2-yl)-4′H,6′H-spiro[piperidine-4,5′-pyrrolo[1,2-b]pyrazol]-4′-amine], the IC50 in assay [1] is not above 50 nM; in assay [3], less than 100 nM.
In the same order, the values of `N[C@@H]1c2ccnn2CC12CCN(c1cnc(Sc3cccc(C4CC4)c3F)cn1)CC2` [Example 69, (S)-1-(5-((3-cyclopropyl-2-fluorophenyl)thio)pyrazin-2-yl)-4′H,6′H-spiro[piperidine-4,5′-pyrrolo[1,2-b]pyrazol]-4′-amine] are not above 50 nM and less than 100 nM.
In the same order, the values of `N[C@@H]1c2ccnn2CC12CCN(c1cnc(Sc3ccc(Cl)c4ncccc34)cn1)CC2` [Example 70, (S)-1-(5-((8-chloroquinolin-5-yl)thio)pyrazin-2-yl)-4′H,6′H-spiro[piperidine-4,5′-pyrrolo[1,2-b]pyrazol]-4′-amine] are not above 50 nM and less than 100 nM.
In the same order, the values of `N[C@@H]1c2ccnn2CC12CCN(c1cnc(Sc3cccc(F)c3C(F)F)cn1)CC2` [Example 71, (S)-1-(5-((2-(difluoromethyl)-3-fluorophenyl)thio)pyrazin-2-yl)-4′H,6′H-spiro[piperidine-4,5′-pyrrolo[1,2-b]pyrazol]-4′-amine] are not above 50 nM and less than 100 nM.
For the compound `N[C@@H]1c2ccnn2CC12CCN(c1cnc(Sc3ccccc3C(F)F)cn1)CC2` [Example 72, (S)-1-(5-((2-(difluoromethyl)phenyl)thio)pyrazin-2-yl)-4′H,6′H-spiro[piperidine-4,5′-pyrrolo[1,2-b]pyrazol]-4′-amine], the IC50 in assay [1] was not above 50 nM; in assay [3], less than 100 nM.
In the same order, the values of `N[C@@H]1c2ccnn2CC12CCN(c1cnc(Sc3ccc(OC(F)F)c4ncccc34)cn1)CC2` [Example 73, (S)-1-(5-((8-(difluoromethoxy)quinolin-5-yl)thio)pyrazin-2-yl)-4′H,6′H-spiro[piperidine-4,5′-pyrrolo[1,2-b]pyrazol]-4′-amine] are not above 50 nM and less than 100 nM.
As for `N[C@@H]1c2ccnn2CC12CCN(c1cnc(Sc3cc(C(F)F)ccc3F)cn1)CC2` [Example 74, (S)-1-(5-((5-(difluoromethyl)-2-fluorophenyl)thio)pyrazin-2-yl)-4′H,6′H-spiro[piperidine-4,5′-pyrrolo[1,2-b]pyrazol]-4′-amine], the IC50 in assay [1] is not above 50 nM; in assay [3], 100 to 500 nM.
In the same order, the values of `N[C@@H]1c2ccnn2CC12CCN(c1cnc(Sc3c(F)cccc3F)cn1)CC2` [Example 75, (S)-1-(5-((2,6-difluorophenyl)thio)pyrazin-2-yl)-4′H,6′H-spiro[piperidine-4,5′-pyrrolo[1,2-b]pyrazol]-4′-amine] are not above 50 nM and less than 100 nM.
As to `N#Cc1ccc(Sc2cnc(N3CCC4(CC3)Cn3nccc3[C@H]4N)cn2)c(F)c1` [Example 76, (S)-4-((5-(4′-amino-4′H,6′H-spiro[piperidine-4,5′-pyrrolo[1,2-b]pyrazol]-1-yl)pyrazin-2-yl)thio)-3-fluorobenzonitrile], the IC50 in assay [1] is not above 50 nM; in assay [3], less than 100 nM.
In the same order, the values of `N[C@@H]1c2ccnn2CC12CCN(c1cnc(Sc3cc(F)c(F)cc3F)cn1)CC2` [Example 77, (S)-1-(5-((2,4,5-trifluorophenyl)thio)pyrazin-2-yl)-4′H,6′H-spiro[piperidine-4,5′-pyrrolo[1,2-b]pyrazol]-4′-amine] are not above 50 nM and 100 to 500 nM.
In the same order, the values of `N[C@@H]1c2ccnn2CC12CCN(c1cnc(Oc3ccccc3F)cn1)CC2` [Example 78, (S)-1-(5-(2-fluorophenoxy)pyrazin-2-yl)-4′H,6′H-spiro[piperidine-4,5′-pyrrolo[1,2-b]pyrazol]-4′-amine] are not above 50 nM and 100 to 500 nM.
In the same order, the values of `N[C@@H]1c2ccnn2CC12CCN(c1cnc(Oc3ccc(Cl)cc3F)cn1)CC2` [Example 79, (S)-1-(5-(4-chloro-2-fluorophenoxy)pyrazin-2-yl)-4′H,6′H-spiro[piperidine-4,5′-pyrrolo[1,2-b]pyrazol]-4′-amine] are not above 50 nM and 100 to 500 nM.
Consider `N[C@@H]1c2ccnn2CC12CCN(c1cnc(Sc3cccc(F)c3-n3cccn3)cn1)CC2` [Example 80, (S)-1-(5-((3-fluoro-2-(1H-pyrazol-1-yl)phenyl)thio)pyrazin-2-yl)-4′H,6′H-spiro[piperidine-4,5′-pyrrolo[1,2-b]pyrazol]-4′-amine], for which the figures for the IC50 in assay [1] and in assay [3] were not above 50 nM and 100 to 500 nM, respectively.
In the same order, the values of `N[C@@H]1c2ccnn2CC12CCN(c1cnc(Sc3cccc(-n4cccn4)c3F)cn1)CC2` [Example 81, (S)-1-(5-((2-fluoro-3-(1H-pyrazol-1-yl)phenyl)thio)pyrazin-2-yl)-4′H,6′H-spiro[piperidine-4,5′-pyrrolo[1,2-b]pyrazol]-4′-amine] are not above 50 nM and less than 100 nM.
Turning to `N[C@@H]1c2ccnn2CC12CCN(c1cnc(Sc3cccc(-n4ccnc4C(F)F)c3Cl)cn1)CC2` [Example 82, (S)-1-(5-((2-chloro-3-(2-(difluoromethyl)-1H-imidazol-1-yl)phenyl)thio)pyrazin-2-yl)-4′H,6′H-spiro[piperidine-4,5′-pyrrolo[1,2-b]pyrazol]-4′-amine], the values for the concentration for half-maximal inhibition (IC50) in assay [1] and in assay [3] were not above 50 nM and less than 100 nM, respectively.
In the same order, the values of `Cn1cc2ccc(Sc3cnc(N4CCC5(CC4)Cn4nccc4[C@H]5N)cn3)c(F)c2n1` [Example 83, (S)-1-(5-((7-fluoro-2-methyl-2H-indazol-6-yl)thio)pyrazin-2-yl)-4′H,6′H-spiro[piperidine-4,5′-pyrrolo[1,2-b]pyrazol]-4′-amine] are not above 50 nM and less than 100 nM.
In the same order, the values of `Cn1cc2c(Cl)c(Sc3cnc(N4CCC5(CC4)Cn4nccc4[C@H]5N)cn3)ccc2n1` [Example 84, (S)-1-(5-((4-chloro-2-methyl-2H-indazol-5-yl)thio)pyrazin-2-yl)-4′H,6′H-spiro[piperidine-4,5′-pyrrolo[1,2-b]pyrazol]-4′-amine] are not above 50 nM and less than 100 nM.
